Results as given in ChEMBL document CHEMBL4619809, “Chemically Induced Degradation of WEE1 Kinase for Difficult to Treat Diseases” (ACS Med Chem Lett, 2020).

Molecular target: Protein cereblon/Wee1-like protein kinase (Homo sapiens) (UniProt P30291+Q96SW2)
Test: Protac activity at CRBN/WEE1 in human MOLT4 cells assessed as induction of degradation of WEE1 at 1 uM incubated for 6 hrs by immunoblot analysis relative to control
Assay type: cell-based
Conditions: MOLT-4

Chain of Protein cereblon/Wee1-like protein kinase (Homo sapiens) (P30291 whole entry, looked up): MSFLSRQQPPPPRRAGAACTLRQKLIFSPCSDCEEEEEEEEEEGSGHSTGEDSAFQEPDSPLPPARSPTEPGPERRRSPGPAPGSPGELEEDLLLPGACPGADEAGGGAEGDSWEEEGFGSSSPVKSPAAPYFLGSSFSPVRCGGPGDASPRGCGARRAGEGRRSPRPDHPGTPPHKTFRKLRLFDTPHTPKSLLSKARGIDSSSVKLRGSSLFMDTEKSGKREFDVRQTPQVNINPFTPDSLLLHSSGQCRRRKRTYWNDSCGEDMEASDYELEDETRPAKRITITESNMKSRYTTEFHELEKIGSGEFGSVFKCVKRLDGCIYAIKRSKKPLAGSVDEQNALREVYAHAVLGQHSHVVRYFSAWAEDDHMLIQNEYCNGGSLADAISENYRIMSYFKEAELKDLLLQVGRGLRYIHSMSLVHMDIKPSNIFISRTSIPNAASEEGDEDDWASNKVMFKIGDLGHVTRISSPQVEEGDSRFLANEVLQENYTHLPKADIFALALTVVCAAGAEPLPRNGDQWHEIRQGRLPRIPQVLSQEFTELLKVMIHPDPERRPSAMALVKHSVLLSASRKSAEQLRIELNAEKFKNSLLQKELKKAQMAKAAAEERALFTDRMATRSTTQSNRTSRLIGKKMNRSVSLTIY
Chain of Protein cereblon/Wee1-like protein kinase (Homo sapiens) (Q96SW2 whole entry, looked up): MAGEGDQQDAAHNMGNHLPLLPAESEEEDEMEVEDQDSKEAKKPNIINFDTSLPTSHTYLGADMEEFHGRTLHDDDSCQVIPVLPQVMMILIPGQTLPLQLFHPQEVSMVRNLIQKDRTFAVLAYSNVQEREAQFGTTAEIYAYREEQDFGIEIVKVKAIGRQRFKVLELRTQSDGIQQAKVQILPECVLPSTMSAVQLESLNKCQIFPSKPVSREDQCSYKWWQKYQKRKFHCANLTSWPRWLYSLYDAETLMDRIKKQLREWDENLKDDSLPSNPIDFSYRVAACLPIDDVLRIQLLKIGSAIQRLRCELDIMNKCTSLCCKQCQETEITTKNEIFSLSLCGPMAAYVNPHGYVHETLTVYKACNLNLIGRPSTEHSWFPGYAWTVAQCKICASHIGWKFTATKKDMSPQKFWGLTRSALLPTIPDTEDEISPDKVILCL

| SMILES | Activity [%] |
| --- | --- |
| C=CCn1c(=O)c2cnc(Nc3ccc(N4CCN(C(=O)CCOCCOCCNc5cccc6c5C(=O)N(C5CCC(=O)NC5=O)C6=O)CC4)cc3)nc2n1-c1cccc(C(C)(C)O)n1 (stereo not given) | > 50 |
| C=CCn1c(=O)c2cnc(Nc3ccc(N4CCN(C(=O)CCOCCOCCNc5cccc6c5C(=O)N(C5CCC(=O)NC5=O)C6)CC4)cc3)nc2n1-c1cccc(C(C)(C)O)n1 (stereo not given) | 25 to 50 |
| C=CCn1c(=O)c2cnc(Nc3ccc(N4CCN(C(=O)CCOCCOCCOCCN5CCN(Cc6ccc(COc7cccc8c7CN([C@H]7CCC(=O)NC7=O)C8=O)cc6)CC5)CC4)cc3)nc2n1-c1cccc(C(C)(C)O)n1 | > 50 |
| C=CCn1c(=O)c2cnc(Nc3ccc(N(C)CCCCNc4cccc5c4C(=O)N(C4CCC(=O)NC4=O)C5=O)cc3)nc2n1-c1cccc(C(C)(C)O)n1 (stereo not given) | > 50 |
| C=CCn1c(=O)c2cnc(Nc3ccc(N4CCN(CCCNC(=O)CCOCCOCCOCCOCCNc5cccc6c5C(=O)N(C5CCC(=O)NC5=O)C6=O)CC4)cc3)nc2n1-c1cccc(C(C)(C)O)n1 (stereo not given) | > 50 |

Continued, values first:

| Activity [%] | SMILES |
| --- | --- |
| > 50 | C=CCn1c(=O)c2cnc(Nc3ccc(N4CCN(CCCNC(=O)CCOCCOCCNc5cccc6c5C(=O)N(C5CCC(=O)NC5=O)C6=O)CC4)cc3)nc2n1-c1cccc(C(C)(C)O)n1 (stereo not given) |
| > 50 | C=CCn1c(=O)c2cnc(Nc3ccc(N4CCN(C(=O)CCOCCNc5cccc6c5C(=O)N(C5CCC(=O)NC5=O)C6=O)CC4)cc3)nc2n1-c1cccc(C(C)(C)O)n1 (stereo not given) |
| > 50 | C=CCn1c(=O)c2cnc(Nc3ccc(N4CCN(CCCNc5cccc6c5C(=O)N(C5CCC(=O)NC5=O)C6=O)CC4)cc3)nc2n1-c1cccc(OC)n1 (stereo not given) |
| > 50 | C=CCn1c(=O)c2cnc(Nc3ccc(N4CCN(CCCNc5cccc6c5C(=O)N(C5CCC(=O)NC5=O)C6=O)CC4)cc3)nc2n1-c1cccc(C(C)(C)O)n1 (stereo not given) |
| > 50 | C=CCn1c(=O)c2cnc(Nc3ccc(N4CCN(CCCNc5cccc6c5C(=O)N(C5CCC(=O)NC5=O)C6=O)CC4)cc3)nc2n1-c1cccc(C(F)(F)F)n1 (stereo not given) |
